In patent US10570176B2, “Anti-hepatitis B virus X protein polypeptide pharmaceutical” (priority 2015, dated 2020):
Non-standard residues stand in square brackets, D forms with d. No end group written: not given here.

Legend:
[1] = test system: liver cancer HepAD38 cells integrated with HVB DNA; test: HBeAg secretion ELISA in HepAD38 cells; format: cell-based; conditions: for Inhibition of HBeAg secretion levels: 10 μM
Protocol: (§1) 3. Analysis of function of D-TTK001 on HBeAg secreation in liver cancer cells utilizing enzyme-linked immunosorbent assay (ELISA)
(§2) (i) Biosafety cabinet was ultraviolet sterilized for 30 min and purged for 30 min; DMEM/F12 (1:1) culture medium containing 15% fetal bovine serum, HepAD38 cells (or HepG2.2.15 cells) were taken out, sterilized with 75% alcohol, and placed in the biosafety cabinet.
(§3) (ii) Under aseptic conditions, discard old culture medium, add 3 mL 1×PBS each time, wash twice, add 1 mL 0.25% trypsin, the cells were digested until cell rounding as observed in microscope. Add 5 mL culture medium, dispense cells, count with hemocytometer, and dilute with culture medium to a cell number of 1˜2×10^4 cells/mL.
(iii) Plating 96-well plate. Under aseptic conditions, discard old culture medium, add 3 mL 1×PBS each time, wash twice, add 1 mL 0.05% trypsin, the cells were digested until cell rounding as observed in microscope. Add 10 mL culture medium, dispense cells, count with hemocytometer, and dilute with DMEM/F12(1:1) culture medium, add 100 μL cell suspension into each well to a cell number of 1˜2×10^3 cells/mL. The outer-most wells are not added with cells. Culturing until cell attachment (usually 12 hrs.) and extension. Subsequent tests can be conducted when cells are in good condition.
(2) Applying D-TTK001 (or L-TTK001, i.e., anti-HBxP1#) to liver cancer HepAD38 cells (or HepG2.2.15 cells)
10 mM D-TTK001 (or L-TTK001) mother solution was serially diluted from high concentration to low concentration, added into liver cancer HepAD38 cells (or HepG2.2.15 cells) culture solution to obtain final concentrations of D-TTK001 (or L-TTK001) of 0.1 μM, 1 μM, 10 and 100 μM in respective groups. […]
(3) Applying ELISA to measure HBeAg content in HepAD38 cell (or HepG2.2.15 cell) culture medium
(i) Balancing: place HBeAg assay kit in room temperature for 30 min.
(ii) Preparing solution: dilute concentrated wash liquid for 25 times with purified water.
(iii) Taking out the plate: take out the reaction plate according to experimental requirements (3 wells for negative control, 1 well for positive control, and 1 well for blank control).
(iv) Adding sample: add 75 μL of test samples or negative/positive control into respective wells, gently shake and mix.
(v) Incubating: after sealed with microplate sealer, incubate at 37° C. for 60 min.
(vi) Adding enzyme: add 50 μL of enzyme conjugates into each well except for blank wells, gently shake and mix.
(vii) Incubating: after sealed with microplate sealer, incubate at 37° C. for 30 min.
(viii) Washing plate: remove microplate sealer carefully, manually wash plate for 5 times, pat dry.
(ix) Developing color: add 50 μL each of color-developing agent A and B liquid, gently shake and mix, develop color in dark placed at 37° C. for 30 min.
(§4) (x) Stopping: add 50 μL of stop solution into each well, gently shake and mix, measure the result in ten minutes. Set wavelength of microplate reader to 450 nm, measure OD value for each well after zero setting with blank wells.
The invention also investigates the role of the functional variants of the polypeptide and functional fragments thereof. The sequences as shown in the following table are artificially synthesized D-amino acid substituted sequences on the basis of L-TTK001 (i.e., anti-HBxP1#). The polypeptide fragments were artificially synthesized according to the sequences (method as above), and then, above-mentioned ELISA method was adopted to observe the change in the functions of the polypeptides.

[2] = test system: HepG2.2.15 cells; test: HBeAg secretion ELISA in HepG2.2.15 cells; format: cell-based; conditions: 0.1, 1, 10, 100 μM
Protocol: as §1, §2, §3
(iii) Plating 96-well plate. Under aseptic conditions, discard old culture medium, add 3 mL 1×PBS each time, wash twice, add 1 mL 0.05% trypsin, the cells were digested until cell rounding as observed in microscope. Add 10 mL culture medium, dispense cells, count with hemocytometer, and dilute with DMEM/F12(1:1) culture medium, add 100 μL cell suspension into each well to a cell number of 1˜2×10^3 cells/mL. […]
as §4

[3] = test system: HepAD38 cells; test: MTT assay, proliferation of HepAD38 cells; format: cell-based; conditions: 0.1, 1, 10, 100 μM, 48 hrs
Protocol: (1) Plating cells: suspend HepAD38 cells at exponential phase in RPMI1640 medium with 10% FBS, and plate 4000-5000 cells in a 96-well plate with 100 μL per well.
(2) Culturing cells: within 12 hrs. for adhesion of cultured cells, add different concentrations of synthesized D-TTK001 (or L-TTK001) polypeptides from Example 1 (0.1 μM, 1 μM, 10 μM and 100 μM) into 8 wells for each concentration, and incubate for 48 hrs. in common condition.
(3) Coloration: add 20 μL of MTT solution (5 mg/mL MTT in PBS buffer (pH7.4)) for each well.
(4) Incubate for 4 hrs., and carefully aspirate off the supernatant from the wells. Add 150 μL of DMSO into each well, shake for 10 min until the crystals were dissolved.
(5) Comparison: Read in an ELISA reader at 490 nm to measure the absorbance for each well. Results were calculated using Student's t-test.

[4] = target: T1, HBx protein (Hepatitis B virus genotype D subtype ayw, UniProt P03165); test: In vitro binding to recombinantly expressed HBx protein, Biacore 3000; conditions: in vitro binding to HBx, in vitro binding analysis results
T1 construct: made in house
Protocol: The recombinant plasmid (pET-30a-HBx) expressing HBx gene was self-constructed and preserved (Zhang H, et al. J Biomed Biotechnol, doi:10.1155/2009/289068), and then expression and purification of HBx were conducted according to above reference for the measurement of in vitro binding ability. Biacore 3000 biomolecular interaction analyzing unit (manufactured by GE Healthcare) was utilized to measure in vitro binding ability of polypeptide D-TTK001 to recombinantly expressed HBx protein. Polypeptide at different concentrations were injected for 180 seconds at a rate of 30 μL/min. In dissociation stage, HBS-EP buffer was injected for 900 seconds at a rate of 30 μL/min, then at a rate of 30 μL/min, 2 shots of 1 mM NaOH were injected for 20 seconds to regenerate the chip. All signals were calibrated using channel 1 as the reference channel. Binding measurement was conducted twice, respectively, wherein in the first measurement, HBX was injected into the channel of the coupled polypeptide and the blank channel at concentrations of 0 nM, 10 nM, 50 nM, 100 nM, 500 nM and 600 nM, respectively. Binding time was 180 seconds and dissociation time was 400 seconds. On chip surface, 1 mM NaOH was injected for 20 seconds at a rate of 30 μL/min for regeneration. In the second measurement, HBX was injected into the channel of coupled polypeptide and the blank channel at concentrations of 0 nM, 10 nM, 50 nM, 588 nM, 1 μM, and 2 μM, respectively. Binding time was 180 seconds and dissociation time was 400 seconds. On chip surface, 1 mM NaOH was injected for 20 seconds at a rate of 30 μL/min for regeneration. Results were kinetically analyzed by BIA Evaluation Software.

T1 sequence (P03165 whole entry): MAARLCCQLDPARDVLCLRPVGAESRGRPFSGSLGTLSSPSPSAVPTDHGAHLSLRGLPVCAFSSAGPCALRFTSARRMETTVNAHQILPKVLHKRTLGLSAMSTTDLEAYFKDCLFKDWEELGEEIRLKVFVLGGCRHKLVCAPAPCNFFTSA

Substance | Inhibition of HBeAg secretion levels [1] | also measured
G-S-A-D/V-M-F-S-S-K-E-R-G (GSA[dV]MFSSKERG) [D-TTK001-3] | inhibits HBeAg secretion levels of HepAD38 cells to various extents | 
G-S-A-V-M-F-S-S-D/K-E-R-G (GSAVMFSS[dK]ERG) [D-TTK001-8] | inhibits HBeAg secretion levels of HepAD38 cells to various extents | 
G-S-A-V-M-F-S-D/S-K-E-R-G (GSAVMFS[dS]KERG) [D-TTK001-7] | inhibits HBeAg secretion levels of HepAD38 cells to various extents | 
G-D/S-A-V-M-F-S-S-K-E-R-G (G[dS]AVMFSSKERG) [D-TTK001-1] | inhibits HBeAg secretion levels of HepAD38 cells to various extents | 
G-S-A-V-D/M-F-S-S-K-E-R-G (GSAV[dM]FSSKERG) [D-TTK001-4] | inhibits HBeAg secretion levels of HepAD38 cells to various extents | 
GSAVMFSSKERG [L-TTK001, Gly-Ser-Ala-Val-Met-Phe-Ser-Ser-Lys-Glu-Arg-Gly, reference compound] |  | Minimum effective dose on HBeAg secretion levels [2]: 10 µM; Minimum effective dose on HBeAg secretion levels ([1]; 0.1, 1, 10, 100 μM): 10 µM; Minimum effective dose on growth and proliferation (MTT) [3]: 10 µM; Kd [4]: 8 nM
G-S-A-V-M-F-S-S-K-D/E-R-G (GSAVMFSSK[dE]RG) [D-TTK001-9] | inhibits HBeAg secretion levels of HepAD38 cells to various extents | 
G-S-A-V-M-D/F-S-S-K-E-R-G (GSAVM[dF]SSKERG) [D-TTK001-5] | inhibits HBeAg secretion levels of HepAD38 cells to various extents | 
G-S-D/A-V-M-F-S-S-K-E-R-G (GS[dA]VMFSSKERG) [D-TTK001-2] | inhibits HBeAg secretion levels of HepAD38 cells to various extents | 
G-S-A-V-M-F-D/S-S-K-E-R-G (GSAVMF[dS]SKERG) [D-TTK001-6] | inhibits HBeAg secretion levels of HepAD38 cells to various extents | 
G-S-A-V-M-F-S-S-K-E-D/R-G (GSAVMFSSKE[dR]G) [D-TTK001-10] | inhibits HBeAg secretion levels of HepAD38 cells to various extents | 
